In assay [1] the test system is Pyricularia oryzae. Nature of the assay: whole plant or invertebrate. The format is in vivo. The settings on record: soil, read-out: Control value (number of lesions at the second leaf).
Assay [2] deals with Pyricularia oryzae. Nature of the assay: whole plant or invertebrate. In kind it is in vivo. The settings on record: foliar, read-out: Control value (number of lesions at the second leaf).

Bounds are passed on as bounds.

Take `CC(C)Oc1ccc(NC(=O)c2cc(F)nc(F)c2F)cc1` [Example 1-59]: the pest or weed control at 10 µg/mL in the assay with Pyricularia oryzae [1] was at least 80%. Further, the pest or weed control at 25 ppm in the assay with Pyricularia oryzae [2] was at least 80%.

Turning to `CC(=O)Oc1ccccc1COC(=O)c1cc(F)nc(F)c1F` [Example 1-102], the pest or weed control at 10 µg/mL in the assay with Pyricularia oryzae [1] was at least 80%. The pest or weed control at 200 ppm with Pyricularia oryzae [2] is at least 80%.

On to `O=C(Nc1ccc(C(F)(F)F)cc1)c1cc(F)nc(F)c1` [Example 1-139], for which the pest or weed control at 10 µg/mL in the assay on Pyricularia oryzae [1] is at least 80%. In the assay with Pyricularia oryzae [2], the pest or weed control at 25 ppm was at least 80% and the pest or weed control at 200 ppm was at least 80%.

Consider `CC(C)c1ccccc1NC(=O)c1cc(F)nc(F)c1` [Example 1-177], for which, in the assay with Pyricularia oryzae [2], the pest or weed control at 200 ppm was at least 80%.

On to `O=C(Oc1cccc2ccccc12)c1cc(F)nc(F)c1` [Example 1-202], for which the pest or weed control at 10 µg/mL in the assay with Pyricularia oryzae [1] is at least 80%. Further, the pest or weed control at 200 ppm in the assay with Pyricularia oryzae [2] is at least 80%.

In the case of `COc1cccc(OC(=O)c2cc(F)nc(F)c2)c1` [Example 1-187], in the assay with Pyricularia oryzae [1], the pest or weed control at 10 µg/mL is at least 80%. In the assay on Pyricularia oryzae [2], the pest or weed control at 200 ppm was at least 80%.

Consider `COC(=O)CNC(=O)c1cc(F)nc(F)c1F` [Example 1-86], for which the pest or weed control at 10 µg/mL in the assay on Pyricularia oryzae [1] was at least 80%. Moreover, the pest or weed control at 200 ppm with Pyricularia oryzae [2] is at least 80%.

`COc1ccccc1OC(=O)c1cc(F)nc(F)c1` [Example 1-210]: the pest or weed control at 10 µg/mL in the assay on Pyricularia oryzae [1] is at least 80%. In the assay on Pyricularia oryzae [2], the pest or weed control at 200 ppm was at least 80%.

With `CCOc1cccc(NC(=O)c2cc(F)nc(F)c2F)c1` [Example 1-38], in the assay with Pyricularia oryzae [2], the pest or weed control at 25 ppm is at least 80%.

Regarding `Cc1ccc(NC(=O)c2cc(F)nc(F)c2)cc1` [Example 1-170], the pest or weed control at 10 µg/mL with Pyricularia oryzae [1] is at least 80%. In the assay with Pyricularia oryzae [2], the pest or weed control at 200 ppm is at least 80%.

As for `COc1cc(NC(=O)c2cc(F)nc(F)c2)cc(OC)c1` [Example 1-132], in the assay with Pyricularia oryzae [1], the pest or weed control at 10 µg/mL was at least 80%. Further, the pest or weed control at 200 ppm in the assay on Pyricularia oryzae [2] is at least 80%.

With `O=C(Oc1ccccc1)c1cc(F)nc(F)c1F` [Example 1-129], in the assay on Pyricularia oryzae [2], the pest or weed control at 200 ppm was at least 80%.

`O=C(Nc1nccs1)c1cc(F)nc(F)c1F` [Example 1-18]: the pest or weed control at 10 µg/mL in the assay with Pyricularia oryzae [1] was at least 80%. Besides, the pest or weed control at 200 ppm with Pyricularia oryzae [2] is at least 80%.

Take `COc1ccccc1OC(=O)c1cc(F)nc(F)c1F` [Example 1-103]: the pest or weed control at 10 µg/mL in the assay on Pyricularia oryzae [1] is at least 80%. Further, in the assay on Pyricularia oryzae [2], the pest or weed control at 200 ppm was at least 80%.

In the case of `O=C(Nc1ccncc1)c1cc(F)nc(F)c1` [Example 1-172], in the assay with Pyricularia oryzae [2], the pest or weed control at 25 ppm was at least 80% and the pest or weed control at 200 ppm is at least 80%.

`CC(C)c1ccc(NC(=O)c2cc(F)nc(F)c2)cc1` [Example 1-179]: the pest or weed control at 10 µg/mL in the assay with Pyricularia oryzae [1] was at least 80%. The pest or weed control at 200 ppm in the assay on Pyricularia oryzae [2] was at least 80%.

With `O=C(Nc1cc(Cl)c(Cl)c(Cl)c1)c1cc(F)nc(F)c1F` [Example 1-19], the pest or weed control at 10 µg/mL in the assay on Pyricularia oryzae [1] was at least 80%. The pest or weed control at 25 ppm with Pyricularia oryzae [2] is at least 80%.

Take `O=C(Nc1cccc(C(F)(F)F)c1)c1cc(F)nc(F)c1` [Example 1-191]: the pest or weed control at 10 µg/mL in the assay with Pyricularia oryzae [1] is at least 80%. The pest or weed control at 200 ppm with Pyricularia oryzae [2] is at least 80%.

With `O=C(Nc1ccc2c(c1)CCCC2)c1cc(F)nc(F)c1F` [Example 1-3], in the assay on Pyricularia oryzae [1], the pest or weed control at 10 µg/mL is at least 80%. Besides, the pest or weed control at 200 ppm in the assay on Pyricularia oryzae [2] was at least 80%.

Turning to `CC(C)Oc1cccc(NC(=O)c2cc(F)nc(F)c2F)c1` [Example 1-41], in the assay on Pyricularia oryzae [2], the pest or weed control at 25 ppm is at least 80%.

Consider `COc1ccccc1NC(=O)c1cc(F)nc(F)c1` [Example 1-131], for which, in the assay with Pyricularia oryzae [2], the pest or weed control at 200 ppm was at least 80%.

Take `O=C(Nc1cccnn1)c1cc(F)nc(F)c1F` [Example 1-48]: in the assay with Pyricularia oryzae [1], the pest or weed control at 10 µg/mL was at least 80%.

As for `CCCCCCc1ccc(NC(=O)c2cc(F)nc(F)c2)cc1` [Example 1-181], the pest or weed control at 10 µg/mL with Pyricularia oryzae [1] is at least 80%.

Take `O=C(OC1CCCCC1)c1cc(F)nc(F)c1` [Example 1-205]: in the assay on Pyricularia oryzae [1], the pest or weed control at 10 µg/mL was at least 80%.

In the case of `O=C(c1cc(F)nc(F)c1F)N1CCc2ccccc21` [Example 2-4], the pest or weed control at 10 µg/mL with Pyricularia oryzae [1] was at least 80%.

Consider `O=C(OC/C=C\COC(=O)c1cc(F)nc(F)c1F)c1cc(F)nc(F)c1F` [Example 1-151], for which the pest or weed control at 10 µg/mL in the assay with Pyricularia oryzae [1] is at least 80%.

For the compound `O=C(Sc1ccccc1)c1cc(F)nc(F)c1F` [Example 1-130], the pest or weed control at 10 µg/mL with Pyricularia oryzae [1] was at least 80%.

`O=C(Nc1ccc(Oc2ccccc2)cc1)c1cc(F)nc(F)c1F` [Example 1-68]: the pest or weed control at 10 µg/mL in the assay on Pyricularia oryzae [1] is at least 80%.

Turning to `Cc1ccc(NC(=O)c2cc(F)nc(F)c2F)cc1` [Example 1-66], in the assay with Pyricularia oryzae [1], the pest or weed control at 10 µg/mL was at least 80%.

Take `O=C(Nc1ccccc1)c1cc(F)nc(F)c1` [Example 1-143]: the pest or weed control at 10 µg/mL with Pyricularia oryzae [1] is at least 80%.

For `N#Cc1ccccc1NC(=O)c1cc(F)nc(F)c1F` [Example 1-35], the pest or weed control at 10 µg/mL in the assay on Pyricularia oryzae [1] was at least 80%.

Consider `N#CCNC(=O)c1cc(F)nc(F)c1F` [Example 1-91], for which the pest or weed control at 10 µg/mL in the assay with Pyricularia oryzae [1] was at least 80%.

For `O=C(Nc1cccc(Cc2ccccc2)c1)c1cc(F)nc(F)c1F` [Example 1-27], the pest or weed control at 10 µg/mL with Pyricularia oryzae [1] was at least 80%.

`O=C(Oc1ccc(Cl)cc1)c1cc(F)nc(F)c1F` [Example 1-107]: in the assay with Pyricularia oryzae [1], the pest or weed control at 10 µg/mL was at least 80%.

In the case of `O=C(Oc1ccc([N+](=O)[O-])cc1)c1cc(F)nc(F)c1` [Example 1-203], the pest or weed control at 10 µg/mL in the assay with Pyricularia oryzae [1] was at least 80%.

With `O=C(Nc1ccc([N+](=O)[O-])cc1)c1cc(F)nc(F)c1F` [Example 1-67], in the assay on Pyricularia oryzae [1], the pest or weed control at 10 µg/mL is at least 80%.

For `CSc1cccc(NC(=O)c2cc(F)nc(F)c2)c1` [Example 1-192], the pest or weed control at 10 µg/mL with Pyricularia oryzae [1] is at least 80%.

Take `CCCNC(=O)c1cc(F)nc(F)c1F` [Example 1-88]: the pest or weed control at 10 µg/mL in the assay with Pyricularia oryzae [1] was at least 80%.

On to `O=C(Nc1ccccc1)c1ccnc(C(F)(F)F)c1` [Example 1-146], for which, in the assay with Pyricularia oryzae [1], the pest or weed control at 10 µg/mL was at least 80%.

Consider `Cc1ccccc1OC(=O)c1cc(F)nc(F)c1` [Example 1-208], for which, in the assay on Pyricularia oryzae [1], the pest or weed control at 10 µg/mL is at least 80%.

On to `O=C(NCc1ccccc1)c1cc(NC(=O)c2cc(F)nc(F)c2F)ccc1Cl` [Example 1-99], for which the pest or weed control at 10 µg/mL in the assay with Pyricularia oryzae [1] is at least 80%.

Turning to `CCOC(=O)c1ccnc(C(F)(F)F)c1` [Example 1-147], the pest or weed control at 10 µg/mL with Pyricularia oryzae [1] was at least 80%.

For the compound `CCCOC(=O)c1cc(F)nc(F)c1` [Example 1-184], the pest or weed control at 10 µg/mL in the assay with Pyricularia oryzae [1] is at least 80%.

For the compound `CCc1ccc(OC(=O)c2cc(F)nc(F)c2)cc1` [Example 1-186], the pest or weed control at 10 µg/mL in the assay on Pyricularia oryzae [1] was at least 80%.

With `O=C(OC/C=C/COC(=O)c1cc(F)nc(F)c1F)c1cc(F)nc(F)c1F` [Example 1-152], in the assay on Pyricularia oryzae [1], the pest or weed control at 10 µg/mL was at least 80%.

Take `COc1ccc(NC(=O)c2cc(F)nc(F)c2)cc1` [Example 1-138]: in the assay on Pyricularia oryzae [2], the pest or weed control at 200 ppm is at least 80%.

For `Cc1ccc(NC(=O)c2cc(F)nc(F)c2F)cc1I` [Example 1-40], the pest or weed control at 10 µg/mL in the assay with Pyricularia oryzae [1] was at least 80%.

`O=C(Nc1ccc(F)c(Cl)c1)c1cc(F)nc(F)c1F` [Example 1-29]: in the assay with Pyricularia oryzae [1], the pest or weed control at 10 µg/mL was at least 80%.

Consider `CCCCCCOC(=O)c1cc(F)nc(F)c1` [Example 1-213], for which, in the assay with Pyricularia oryzae [1], the pest or weed control at 10 µg/mL is at least 80%.

On to `COc1cc(NC(=O)c2cc(F)nc(F)c2F)cc(OC)c1` [Example 1-25], for which, in the assay on Pyricularia oryzae [1], the pest or weed control at 10 µg/mL was at least 80%.

In the case of `O=C(OC/C=C/c1ccccc1)c1cc(F)nc(F)c1F` [Example 1-124], the pest or weed control at 10 µg/mL with Pyricularia oryzae [1] is at least 80%.

Consider `Fc1cc(C2=NCCO2)c(F)c(F)n1` [Example 4-2], for which the pest or weed control at 10 µg/mL in the assay with Pyricularia oryzae [1] was at least 80%.

(Values after patent US12156523B2 (priority 2017, dated 2024).)
